{
  "source": "patent US8215314B2",
  "about": "“Photochemical tissue bonding” (The General Hospital Corporation, priority 2000, dated 2012)",
  "key": {"[1]": {"system": "bovine tendon / NeuraGen collagen conduit interface", "assay": "Tensile strength of PTB bond between NeuraGen conduit and bovine tendon", "settings": "RB dye, 532 nm, fluence of 150-300 Joules, 0.25 cm^2 interface", "protocol": "Additional experiments were also performed to determine the effectiveness of PTB bonding between the NeuraGen™ conduits and an animal tissue, namely bovine tendon tissue. To do this, the tensile strength of a PTB bond formed between the bovine tendon and a segment of Neuregen™ conduit was tested, using various different photoactive dyes. Both the tendon surface and the inner surface of a piece of conduit were coated with RB dye and allowed to sit in the dark for 60 seconds. The two surfaces were then thoroughly dried and pressed together to form a tendon/conduit interface of approximately 0.25 cm^2. The construct was irradiated at 532 nm through the conduit toward the tendon/conduit interface at various fluence levels (Joules). Constructs were then pulled into tension using a tensiometer until the bond between the tendon and the conduit broke. The breaking force was measured in Newtons."}, "pig vein and arteries": {"system": "pig vein and arteries", "assay": "Ex vivo porcine blood vessel anastomosis by PTB (cuff approach), tensile strength", "settings": "0.1% v/v in saline, 532 nm, 0.5 W/cm2 for 2.5 minutes", "text": "In adhering segments of vascular tissue according to methods of the invention, two pieces of blood vessel are joined and photochemically bonded together to create an intimate, watertight seal. Two methods were considered to accomplish anastomosis. The “cuff” approach, which entails administration of the photoactive dye to the outer surface of the proximal vessel and the inside surface of the distal stump of the vessel. The distal stump is folded back on itself and the proximal stump brought into contact. The distal cuff is then placed over the proximal vessel to form a cuff. The overlap region in the cuff is then irradiated with visible light to bond the ends of the vessel together. FIG. 30 represents a schematic overview of the cuff approach.\nThe cuff approach was used with pig vein and arteries ex vivo. The vessels were sharply transected using a scalpel. Rose bengal at a concentration of 0.1% v/v in saline was applied to the outside surface of the proximal stump of the vessel and the inside surface of the distal vessel. The vessels were then mounted over a cylindrical glass rod that acts as support for the hollow vessels. A distal cuff was formed by folding the end of the distal end back on itself, as described above and in FIG. 30. […]"}},
  "data": [
    {"smiles": "O=C([O-])c1c(Cl)c(Cl)c(Cl)c(Cl)c1-c1c2cc(I)c(=O)c(I)c-2oc2c(I)c([O-])c(I)cc12.[Na+].[Na+]", "note": "[Rose Bengal]", "values": [
      {"measurement": "bond between tendon and conduit (breaking force)", "setting": "[1]", "value": "effective bond was formed"},
      {"measurement": "stretch of anastomosed vessels before rupture", "setting": "pig vein and arteries", "value": "3-4 times their normal length"}
    ]}
  ]
}
